Drawing on PubChem BioAssay (NCI), this text covers TGI and GI50 for eight compounds.

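A five-concentration, 48-hour dose response in 96-well plates underlies each endpoint, interpolated linearly between surrounding concentrations. At the GI50, growth is halved. TGI marks complete inhibition of growth.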

Among the test systems are MDA-MB-231 breast; SK-OV-3 ovarian; HT29 colon; NCI-H23 lung; RXF 393 renal; HCT-15 colon; SF-539 CNS; SK-MEL-5 melanoma; EKVX NSCLC; HOP-92 NSCLC.
What all share (experiment): NCI-60 cell line screen, 48 h

Take `CC1(C)OC2C(=O)C=C(COCc3ccccc3)C2O1` (stereo unspecified): the TGI in the assay on MDA-MB-231 breast is above 100 µM; with SK-OV-3 ovarian, 22 µM; with HT29 colon, above 100 µM; in the assay with NCI-H23 lung, 59.4 µM; in the assay with RXF 393 renal it was 45.8 µM; with HCT-15 colon, above 100 µM. The TGI with SF-539 CNS was 60.3 µM; in the assay on SK-MEL-5 melanoma it was 25.8 µM; in the assay with EKVX NSCLC it was above 100 µM.

Take `O=C(Nc1cccc(Nc2ncc(Br)c(NCCc3cnc[nH]3)n2)c1)N1CCCC1`: the GI50 is 4.07 µM in the assay with MDA-MB-231 breast; 4.95 µM with SK-OV-3 ovarian; 3.85 µM in the assay on HT29 colon; 2.98 µM with NCI-H23 lung; 1.61 µM with RXF 393 renal; 21.7 µM with HCT-15 colon. The GI50 in the assay on SF-539 CNS was 0.897 µM; with HOP-92 NSCLC, 0.932 µM; in the assay on EKVX NSCLC, 6.07 µM. For the same compound, the TGI was 29.2 µM in the assay with MDA-MB-231 breast; 32.4 µM in the assay with SK-OV-3 ovarian; 24.2 µM with HT29 colon; 21.3 µM in the assay on NCI-H23 lung; 9.06 µM in the assay on RXF 393 renal; above 67 µM in the assay on HCT-15 colon. Moreover, the TGI in the assay with SF-539 CNS worked out at 9.17 µM; with HOP-92 NSCLC it was 7.93 µM; in the assay on SK-MEL-5 melanoma it was 22.1 µM; in the assay with EKVX NSCLC, 38.1 µM.

For the compound `CN(CC(N)=O)C(=O)N(CCCl)N=O`, the TGI in the assay with MDA-MB-231 breast, in the assay on SK-OV-3 ovarian, in the assay with HT29 colon, in the assay on NCI-H23 lung, with RXF 393 renal and with HCT-15 colon was above 100 µM each time. In addition, the TGI in the assay with SF-539 CNS, in the assay on HOP-92 NSCLC, with SK-MEL-5 melanoma and with EKVX NSCLC was above 100 µM throughout.

As for `COc1ccc(OC)c(Cn2cc3c(c2)-c2oncc2CC3)c1`, the GI50 with MDA-MB-231 breast is 5.02 µM; in the assay on SK-OV-3 ovarian it was 3.13 µM; in the assay on HT29 colon, 2.35 µM; in the assay with NCI-H23 lung, 3.8 µM; in the assay on RXF 393 renal it was 2.67 µM; with HCT-15 colon, 2.92 µM. The GI50 in the assay on SF-539 CNS was 2.28 µM; with HOP-92 NSCLC, 3.25 µM; in the assay with SK-MEL-5 melanoma, 2.61 µM; with EKVX NSCLC it was 4.22 µM. Moreover, the TGI in the assay on MDA-MB-231 breast is above 72 µM; in the assay on SK-OV-3 ovarian it was above 57.5 µM; in the assay with HT29 colon it was 10.9 µM; in the assay with NCI-H23 lung, above 90.2 µM; in the assay with RXF 393 renal, 15.7 µM; in the assay on HCT-15 colon, above 100 µM. Moreover, the TGI in the assay with SF-539 CNS is 7.63 µM; with HOP-92 NSCLC, 57.8 µM; in the assay on SK-MEL-5 melanoma it was 8.99 µM; with EKVX NSCLC, above 100 µM.

Regarding `O=C1NC(=O)C(c2cccc(Cl)c2)=C1Nc1ccc(O)c(Cl)c1`, the GI50 is 16.1 µM in the assay with MDA-MB-231 breast; 6.62 µM with SK-OV-3 ovarian; 10 µM with HT29 colon; 12.9 µM in the assay on NCI-H23 lung; 6.4 µM in the assay with RXF 393 renal; 8.66 µM with HCT-15 colon. In addition, the GI50 in the assay on SF-539 CNS was 7.71 µM; in the assay on HOP-92 NSCLC, 5.76 µM; in the assay on SK-MEL-5 melanoma, 5.46 µM; in the assay with EKVX NSCLC, 10.6 µM. For the same compound, the TGI is above 25 µM with MDA-MB-231 breast; 16.2 µM with SK-OV-3 ovarian; above 25 µM in the assay with HT29 colon; above 25 µM with NCI-H23 lung; 24.8 µM in the assay with RXF 393 renal; above 25 µM with HCT-15 colon. The TGI in the assay on SF-539 CNS was above 21.9 µM; in the assay with HOP-92 NSCLC, above 25 µM; in the assay on SK-MEL-5 melanoma, 18.6 µM; in the assay with EKVX NSCLC it was above 25 µM.

In the case of `Cc1cccc(NC(=O)c2sc3nc4c(cc3c2N)CN(Cc2ccccc2)CC4)c1C`, the GI50 in the assay with MDA-MB-231 breast was 0.432 µM; with SK-OV-3 ovarian, 0.216 µM; with HT29 colon, 0.147 µM; with NCI-H23 lung it was 0.256 µM; with RXF 393 renal it was 0.133 µM; in the assay with HCT-15 colon it was 0.176 µM. Also, the GI50 with SF-539 CNS was 0.165 µM; in the assay on HOP-92 NSCLC it was 0.736 µM; in the assay on SK-MEL-5 melanoma, 0.213 µM; in the assay on EKVX NSCLC it was 0.45 µM. Besides, the TGI was above 50 µM with MDA-MB-231 breast; above 50 µM in the assay with SK-OV-3 ovarian; 1.6 µM in the assay with HT29 colon; above 50 µM in the assay with NCI-H23 lung; 2.11 µM in the assay on RXF 393 renal; above 50 µM in the assay on HCT-15 colon. Further, the TGI with SF-539 CNS was 28.2 µM; with HOP-92 NSCLC, 47.3 µM; with SK-MEL-5 melanoma, above 50 µM; in the assay on EKVX NSCLC, above 50 µM.

For `CC(C)=CCC/C(C)=C/CC/C(C)=C/CC/C=C(\C)CC/C=C(\C)CCC(=O)Nc1ccn(C2OC(CO)C(O)C2(F)F)c(=O)n1` (stereo unspecified), the GI50 was 12.8 µM in the assay with MDA-MB-231 breast; 0.0644 µM in the assay with SK-OV-3 ovarian; 0.594 µM in the assay on HT29 colon; 0.0324 µM in the assay with NCI-H23 lung; 1.09 µM in the assay on RXF 393 renal; 0.691 µM in the assay on HCT-15 colon. For the same compound, the GI50 in the assay on SF-539 CNS is 0.0268 µM; in the assay on HOP-92 NSCLC, 0.435 µM; in the assay on SK-MEL-5 melanoma, 0.168 µM; in the assay on EKVX NSCLC it was 0.112 µM. The TGI in the assay with MDA-MB-231 breast was 27.1 µM; in the assay with SK-OV-3 ovarian, 13.8 µM; in the assay on HT29 colon it was 48.9 µM; in the assay on NCI-H23 lung, 12.4 µM; with RXF 393 renal, 7.15 µM; in the assay with HCT-15 colon, 28 µM. The TGI in the assay on SF-539 CNS came to 0.475 µM; with HOP-92 NSCLC it was 11.5 µM; in the assay on SK-MEL-5 melanoma, 4.75 µM; in the assay on EKVX NSCLC it was 17 µM.

For the compound `O=C(Oc1cccnc1)c1ccsc1Nc1ccnc(C(F)(F)F)c1`, the GI50 in the assay on MDA-MB-231 breast is 6.03 µM; in the assay on SK-OV-3 ovarian, 4 µM; with HT29 colon, 2.39 µM; in the assay with NCI-H23 lung, 4.07 µM; in the assay with RXF 393 renal, 6.26 µM; with HCT-15 colon, 3.49 µM. Moreover, the GI50 in the assay on HOP-92 NSCLC was 3.14 µM; in the assay on SK-MEL-5 melanoma it was 5.26 µM; in the assay with EKVX NSCLC, 34.2 µM. Besides, the TGI in the assay on MDA-MB-231 breast is above 100 µM; with SK-OV-3 ovarian, 29.5 µM; with HT29 colon, 6.34 µM; in the assay with NCI-H23 lung it was above 100 µM; in the assay on RXF 393 renal it was 34.8 µM; with HCT-15 colon, above 100 µM. Further, the TGI in the assay on HOP-92 NSCLC was 46.5 µM; in the assay on SK-MEL-5 melanoma, 30.1 µM; in the assay with EKVX NSCLC it was above 100 µM.
